Drawing on US7772252B2, “Heterocyclic substituted carbonyl derivatives and their use as dopamine D3 receptor ligands” (Aventis Pharmaceuticals Inc., priority 2001, dated 2010), this text covers Ki for 47 compounds.

Each structure is given as a SMILES string.

The target of this experiment is T1, cloned human dopamine D3 receptors (Homo sapiens, UniProt P35462).
T1 construct: expressed in transfected cells; membrane homogenate
T1 sequence (P35462 whole entry): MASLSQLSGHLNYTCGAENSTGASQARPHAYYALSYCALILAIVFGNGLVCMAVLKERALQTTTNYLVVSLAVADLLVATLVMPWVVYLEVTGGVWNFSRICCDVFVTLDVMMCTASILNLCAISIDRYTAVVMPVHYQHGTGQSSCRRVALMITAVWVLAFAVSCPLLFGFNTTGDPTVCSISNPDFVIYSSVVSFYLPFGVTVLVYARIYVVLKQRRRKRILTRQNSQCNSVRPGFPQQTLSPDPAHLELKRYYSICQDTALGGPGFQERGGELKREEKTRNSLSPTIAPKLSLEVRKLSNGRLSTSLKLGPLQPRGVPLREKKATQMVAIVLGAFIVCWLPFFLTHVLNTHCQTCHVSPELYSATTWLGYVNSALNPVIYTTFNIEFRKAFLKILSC
Description: [N-Methyl-3H]Spiroperidol binding to cloned human dopamine D3 receptors. The note with it: read-out: D3 Ki. From the text:
[N-Methyl-^3H]Spiroperidol Binding to Cloned Human Dopamine D3 Receptors
This assay measures the in vitro activity of compounds on cloned human dopamine (D3) receptors and predicts the direct dopamine-blocking properties of putative neuropsychiatric agents at human dopamine D3 receptors.
The D3 gene was isolated from a human striatal cDNA library (Stratagene). The gene was sequenced and sub-cloned into the expression vector RC/RSV (Invitrogen). CHO (Chinese Hamster Ovary) cells were stably transfected with 10 μg of the D3/RSV plasmid using the DOTAP method from Boehringer Mannheim and 72 clones that were G418 resistant were isolated. Using mRNA and binding displacement data a single high expressing clone was identified. This clone was then grown in large batches for the purpose of developing a 96 well format assay.
• 1. One plate (10 cm) with approximately 2-3 million D3 cells per plate is incubated with 1 ml of Trypsin-EDTA at room temperature for ˜2 min or until cells have lifted off plates. Four ml of Ham's F12+10% Fetal Bovine Serum+1% Penicillin/Streptomycin+G418 (400 μg/ml) medium are added to resuspend cells and 1 ml of this is added to each large plate (15 cm) containing 19 ml of the same medium as mentioned above. • 2. The 5 large plates are incubated at 37° C.+5% CO2 for ˜3 days or until the cells are confluent. • 3. After these plates are confluent, they are split into 10 large plates. Medium is aspirated off, 2 ml of Trypsin-EDTA are added to each plate and plates are incubated at RT for 2 min or until cells have lifted off the plate. Eight ml of the F12 medium (same medium as #1 above) are added to each plate (10 ml total) to resuspend the cells and 5 ml are transferred to the 2 new plates containing 15 ml of the F12 media. • 4. The 10 large plates are incubated at 37° C.+5% CO2 for ˜2 days or until the cells are confluent. • 5. The 10 large plates are split into 60 large plates (using Trypsin-EDTA as #3 except 4 ml of F12 medium are added to resuspend cells and 1 ml is aliquoted to 6 new plates containing 19 ml of F12 medium each). • 6. Plates are incubated at 37° C.+5% CO2 for ˜3 days or until cell are confluent. • 7. The 60 large plates are then split into 60 roller bottles (100-150 million cells/bottle). Medium is aspirated off, 2 ml of Trypsin-EDTA are added to each plate and incubated at RT for ˜2 minutes or until cells have lifted off plates. Eight ml of F12 medium are added to each plate to resuspend cells and the entire 10 ml are added to 1 roller bottle containing 90 ml of the F12 medium. • 8. The 60 roller bottles are immediately placed on their sides and transferred to the roller bottle incubator. They are incubated at 37° C.+5% CO2 for ˜3-5 days. Cells are spun at 30-40% motor speed in the Form a incubator. • 9. Medium is poured off and cells are washed 2× in PBS. • 10. Cells are then scraped off in 20 ml of PBS and the bottles are rinsed again with 5 ml of PBS to remove any remaining cells. Cells are stored on ice before membrane preparation. • 11. The yield for 60 D3 roller bottles has varied from ˜260-500 mg. • Note: All tissue culture reagents are from Gibco-BRL. C. Membrane Preparation
The cells are harvested into 250 ml centrifuge tubes with 100 volumes of cold phosphate buffered saline (PBS) and spun down (1200×G for 10 min at 4° C.). The medium is removed and 100 ml PBS are added to each centrifuge tube, cells are resuspened and spun down again. The PBS is removed and the final pellet is homogenized in an appropriate volume of 10% DMSO with a polytron on ice at a medium setting.
A 200 μl sample membrane homogenate is added to 200 μl of 1% SDS, vortexed and allowed to stand for 5 min. Aliquots (25, 50 and 100 μl) of this mixture are assayed in duplicate following the standard Bio-Rad DC protein assay protocol (kit catalog number 500-0112) and using reagent S. Absorbance readings are made at 750 nm (note: the most accurate protein OD readings are between 0.1-0.5 units). […]
As usually defined, the Ki is a measure of affinity in units of concentration, obtained from inhibition or displacement. Turning to `O=C(OCc1ccccc1)N1CCN(C(=O)C2CC2CN2CCC(c3noc4ccsc34)CC2)CC1` (racemic) [compound 831453], the Ki turned out to be 18.3 nM.

`O=C(NCc1ccc2ccccc2c1)C1CC1CN1CCC(c2noc3ccsc23)CC1` (racemic) [compound 831454]: the Ki turned out to be 1.86 nM.

Take `O=C(NCc1ccc(-c2ccccc2)cc1)C1CC1CN1CCC(c2noc3ccsc23)CC1` (racemic) [compound 831455]: the Ki came out at 6.79 nM.

For `O=C(NCCc1cccnc1)C1CC1CN1CCC(c2noc3ccsc23)CC1` (racemic) [compound 831456], the Ki amounted to 6.21 nM.

With `O=C(NC1CCN(Cc2ccccc2)CC1)C1CC1CN1CCC(c2noc3ccsc23)CC1` (racemic) [compound 831457], the Ki came to 1.83 nM.

With `O=C(c1ccc(Cl)cc1)C1CCN(C(=O)C2CC2CN2CCC(c3noc4ccsc34)CC2)CC1` (racemic) [compound 831458], the Ki was 7.43 nM.

Consider `COc1ccc(C2=CCN(C(=O)C3CC3CN3CCC(c4noc5ccsc45)CC3)CC2)cc1` (racemic) [compound 831599], for which the Ki turned out to be 49.8 nM.

As to `O=C(C1CC1CN1CCC(c2noc3ccsc23)CC1)N1CCC(c2ccccc2)C1` (racemic) [compound 831602], the Ki turned out to be 19.6 nM.

Consider `O=C(NCCNc1ccccc1)C1CC1CN1CCC(c2noc3ccsc23)CC1` (racemic) [compound 831603], for which the Ki turned out to be 20.9 nM.

In the case of `CC(C)COC(=O)n1c(CCCNC(=O)C2CC2CN2CCC(c3noc4ccsc34)CC2)nc2ccccc21` (racemic) [compound 831621], the Ki amounted to 70.3 nM.

As for `O=C(NCCCc1nc2ccccc2[nH]1)C1CC1CN1CCC(c2noc3ccsc23)CC1` (racemic) [compound 831622], the inhibitory constant (Ki) was 34.6 nM.

For the compound `O=C(NCCNC(=O)C1CC1CN1CCC(c2noc3ccsc23)CC1)OCc1ccccc1` (racemic) [compound 831649], the Ki turned out to be 173 nM.

For the compound `O=C(NCCCCc1cccnc1)C1CC1CN1CCC(c2noc3ccsc23)CC1` (racemic) [compound 831686], the Ki amounted to 25.3 nM.

Take `O=C(NCCCn1nnc2ccccc21)C1CC1CN1CCC(c2noc3ccsc23)CC1` (racemic) [compound 831687]: the Ki is 277 nM.

Consider `O=C(NCCS(=O)(=O)c1cccc2c(Cl)cccc12)C1CC1CN1CCC(c2noc3ccsc23)CC1` (racemic) [compound 831689], for which the Ki was 16.4 nM.

For `NS(=O)(=O)c1ccc(CCNC(=O)C2CC2CN2CCC(c3noc4ccsc34)CC2)cc1` (racemic) [compound 831701], the Ki was 55.7 nM.

As to `O=C(C1CC1CN1CCC(c2noc3ccsc23)CC1)N1CCC(c2nc3ccccc3s2)CC1` (racemic) [compound 831702], the Ki came out at 27.9 nM.

Consider `O=C(C1CC1CN1CCC(c2noc3ccsc23)CC1)N1CCC(c2cc(-c3cccs3)[nH]n2)CC1` (racemic) [compound 831703], for which the Ki worked out at 45 nM.

Consider `O=C(C1CC1CN1CCC(c2noc3ccsc23)CC1)N1CCC(c2cc(-c3ccco3)[nH]n2)CC1` (racemic) [compound 831704], for which the Ki is 47.5 nM.

Consider `O=C(NCc1cccc(Oc2ccccc2)c1)C1CC1CN1CCC(c2noc3ccsc23)CC1` (racemic) [compound 831735], for which the Ki worked out at 81.3 nM.

Regarding `O=C(NCCS(=O)(=O)c1ccccc1)C1CC1CN1CCC(c2noc3ccsc23)CC1` (racemic) [compound 831736], the Ki was determined as 291 nM.

With `O=C(C1CC1CN1CCC(c2noc3ccsc23)CC1)N1CCC(n2c(=O)[nH]c3ccccc32)CC1` (racemic) [compound 831737], the Ki amounted to 1.25 nM.

For `CCN(CC)C(=O)C1CCN(C(=O)C2CC2CN2CCC(c3noc4ccsc34)CC2)CC1` (racemic) [compound 831738], the Ki was 223 nM.

`CN(C)Cc1ccc(CSCCNC(=O)C2CC2CN2CCC(c3noc4ccsc34)CC2)o1` (racemic) [compound 831740]: the Ki was found to be 2.96 nM.

With `CN1CCN(CCCNC(=O)C2CC2CN2CCC(c3noc4ccsc34)CC2)CC1` (racemic) [compound 831741], the Ki was 125 nM.

For `O=C(C1CC1CN1CCC(c2noc3ccsc23)CC1)N1CCC(Oc2ccc(Cl)cc2)CC1` (racemic) [compound 831794], the Ki amounted to 27.3 nM.

Consider `COc1ccc(CN2CCC(NC(=O)C3CC3CN3CCC(c4noc5ccsc45)CC3)CC2)cc1` (racemic) [compound 831795], for which the Ki is 1.82 nM.

As to `O=C(NCCc1ccccc1Cl)C1CC1CN1CCC(c2noc3ccsc23)CC1` (racemic) [compound 831798], the Ki was found to be 46.3 nM.

On to `O=C(NCCc1cccc(Cl)c1)C1CC1CN1CCC(c2noc3ccsc23)CC1` (racemic) [compound 831799], for which the Ki is 12.1 nM.

Consider `O=C(NCCc1ccc(Cl)cc1)C1CC1CN1CCC(c2noc3ccsc23)CC1` (racemic) [compound 831800], for which the Ki was found to be 5 nM.

`O=C(NCCc1cccc(F)c1)C1CC1CN1CCC(c2noc3ccsc23)CC1` (racemic) [compound 831801]: the Ki was found to be 11.2 nM.

Regarding `O=C(NCCc1ccc(F)cc1)C1CC1CN1CCC(c2noc3ccsc23)CC1` (racemic) [compound 831802], the Ki was found to be 13.4 nM.

Regarding `Cc1ccc(CCNC(=O)C2CC2CN2CCC(c3noc4ccsc34)CC2)cc1` (racemic) [compound 831803], the Ki is 7.44 nM.

Turning to `COc1cccc(CCNC(=O)C2CC2CN2CCC(c3noc4ccsc34)CC2)c1` (racemic) [compound 831804], the Ki worked out at 9.89 nM.

Take `COc1ccccc1CCNC(=O)C1CC1CN1CCC(c2noc3ccsc23)CC1` (racemic) [compound 831805]: the Ki was 10.2 nM.

For `COc1cccc(C(=O)NNC(=O)C2CC2CN2CCC(c3noc4ccsc34)CC2)c1` (racemic) [compound 831811], the Ki stood at 819 nM.

For the compound `O=C(NNC(=O)C1CC1CN1CCC(c2noc3ccsc23)CC1)c1ccc(Cl)cc1` (racemic) [compound 831812], the Ki was found to be 453 nM.

`O=C(NC1CCN(Cc2ccc3ccccc3c2)CC1)C1CC1CN1CCC(c2noc3ccsc23)CC1` (racemic) [compound 831818]: the Ki was determined as 0.117 nM.

For `O=C(NC1CCN(Cc2cc(Cl)cc(Cl)c2)CC1)C1CC1CN1CCC(c2noc3ccsc23)CC1` (racemic) [compound 831819], the Ki is 0.1 nM.

Take `O=C(NC1CCN(Cc2ccc(Oc3ccccc3)cc2)CC1)C1CC1CN1CCC(c2noc3ccsc23)CC1` (racemic) [compound 831820]: the Ki was determined as 6.54 nM.

As to `O=C(NC1CCN(Cc2c(Cl)cccc2Cl)CC1)C1CC1CN1CCC(c2noc3ccsc23)CC1` (racemic) [compound 831821], the Ki was determined as 24.1 nM.

`O=C(NC1CCN(Cc2cccc3ccccc23)CC1)C1CC1CN1CCC(c2noc3ccsc23)CC1` (racemic) [compound 831822]: the Ki worked out at 1.38 nM.

As to `O=C(NC1CCN(Cc2cccc(C(F)(F)F)c2)CC1)C1CC1CN1CCC(c2noc3ccsc23)CC1` (racemic) [compound 831831], the Ki is 6.31 nM.

With `O=C(C1CC1CN1CCC(c2noc3ccsc23)CC1)N1CCN(S(=O)(=O)c2ccccc2)CC1` (racemic) [compound 831835], the Ki is 234 nM.

For the compound `O=C(C1CC1CN1CCC(c2noc3ccsc23)CC1)N1CCN(S(=O)(=O)c2ccc(-c3ccccc3)cc2)CC1` (racemic) [compound 831836], the Ki is 94.3 nM.

For `O=C(C1CC1CN1CCC(c2noc3ccsc23)CC1)N1CCN(S(=O)(=O)Cc2ccccc2)CC1` (racemic) [compound 831837], the Ki came out at 491 nM.

With `O=C(C1CC1CN1CCC(c2noc3ccsc23)CC1)N1CCN(S(=O)(=O)C=Cc2ccccc2)CC1` (racemic) [compound 831838], the Ki is 141 nM.
